This passage reports Kd and IC50 results from patent publication US10526325B2, “Bicyclic heterocyclic derivatives” (Merck Patent GmbH, priority 2015, dated 2020).

Each structure is given as a SMILES string. Where two headings read alike, the source gives them in different places. A value given as a limit tells only on which side of the number the result lay.

For one assay, the target named is human PDHK2 (12-407) (Homo sapiens (Human), UniProt Q15119). The assay can be described thus: Isothermal titration calorimetry (ITC) binding. To be noted: ITC at 30° C., pH 7.5. Summed up:
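Tag-free human PDHK2 (12-407) from E. coli, 50 μM, titrated into 5 μM compound at 30° C in 20 mM HEPES, 135 mM KCl, 1 mM TCEP, 2 mM MgCl2, 15 mM NaH2PO4, pH 7.5, ≤1% DMSO. One-site fit gave KA, ΔH^obs and N after dilution-heat correction. Protein and compound concentrations were normalised to 1:1 stoichiometry against a standard inhibitor.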

A further assay addresses PDHK2 (Homo sapiens (Human), UniProt Q15119). As to the kind of experiment: Biochemical activity testing of PDHK2: PDC inactivation assay. To be noted: human rec PDHK2, porcine heart PDC, 5 μM ATP, read-out: IC50 PDHK2 (enzyme assay). In a few lines:
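Recombinant human PDHK2 (137 nM final) and porcine heart PDC (20 mU/ml) preincubated with compound 30 min at RT in pH 7.0 phosphate kinase buffer, then 5 μM ATP 30 min at 37° C. PDC activity read as NADH fluorescence increase (Ex 340/Em 450 nm) over 45 min with pyruvate, NAD and CoA; 3 mM DCA defined zero; IC50 determined.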

Assay [1] has as its system PDH-E1alpha (pSer300) in HEK293T cells. As to the kind of experiment: Cellular immunofluorescence assay, PDH-E1alpha (pSer300) in HEK293T cells. It counts as cell-based, human. To be noted: 5 hours incubation, anti-PDH-E1alpha (pSer300) immunofluorescence, read-out: IC50 (cell data). In a few lines: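 Human HEK293T cells exposed to compound for 5 h, then fixed, permeabilised and immunostained for phospho-Ser300 PDH-E1α with Alexa 488 secondary and Hoechst counterstain. Fluorescence read by laser scanning cytometry. Data normalized to a pharmacological inhibitor control for dose-response curves.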

The molecule `COc1ncc(F)c(-n2ncc3c2[C@@H](C)CN(C(=O)[C@@](C)(O)C(F)(F)F)C3)n1` [Compound A37, (R)-3,3,3-Trifluoro-1-[(S)-1-(5-fluoro-2-methoxy-pyrimidin-4-yl)-7-methyl-1,4,6,7-tetrahydro-pyrazolo[4,3-c]pyridin-5-yl]-2-hydroxy-2-methyl-propan-1-one] came in with a Kd on human PDHK2 (12-407) of 300 to 3000 nM. For the same molecule, the IC50 lay in the range of 300 to 3000 nM on PDHK2 and 3000 to 50000 nM in assay [1] (Homo sapiens, HEK-293T).

The molecule `C[C@@H]1CN(C(=O)[C@@](C)(O)C(F)(F)F)Cc2cnn(C3CCC(O)CC3)c21` (stereo partly drawn) [Compound A38, (R)-3,3,3-Trifluoro-2-hydroxy-1-[(R)-1-(4-hydroxy-cyclohexyl)-7-methyl-1,4,6,7-tetrahydro-pyrazolo[4,3-c]pyridin-5-yl]-2-methyl-propan-1-one] came in with a Kd on human PDHK2 (12-407) of less than 300 nM. In addition, the IC50 on PDHK2 is less than 300 nM; in assay [1] (Homo sapiens, HEK-293T) it was less than 300 nM.

For `C[C@@H]1CN(C(=O)[C@@](C)(O)C(F)(F)F)Cc2cnn(-c3ccc(F)cn3)c21` [Compound A40, (R)-3,3,3-Trifluoro-1-[(R)-1-(5-fluoro-pyridin-2-yl)-7-methyl-1,4,6,7-tetrahydro-pyrazolo[4,3-c]pyridin-5-yl]-2-hydroxy-2-methyl-propan-1-one], the Kd at human PDHK2 (12-407) was less than 300 nM. The IC50 at PDHK2 is less than 300 nM; in assay [1] (Homo sapiens, HEK-293T), less than 300 nM.

The molecule `C[C@@](O)(C(=O)N1CCc2ncn(-c3ccccc3)c2C1)C(F)(F)F` [Compound A43, (R)-3,3,3-Trifluoro-2-hydroxy-2-methyl-1-(3-phenyl-3,4,6,7-tetrahydro-imidazo[4,5-c]pyridin-5-yl)-propan-1-one] displayed a Kd on human PDHK2 (12-407) of less than 300 nM. Also, the IC50 (on PDHK2; in assay [1]) was 300 to 3000 nM throughout.

Turning to `C[C@@](O)(C(=O)N1CCc2c(nnn2-c2ccccc2)C1)C(F)(F)F` [Compound A46, (R)-3,3,3-Trifluoro-2-hydroxy-2-methyl-1-(1-phenyl-1,4,6,7-tetrahydro-[1,2,3]triazolo[4,5-c]pyridin-5-yl)-propan-1-one], the Kd at human PDHK2 (12-407) is less than 300 nM. The IC50 at PDHK2 lay within 300 to 3000 nM; in assay [1] (Homo sapiens, HEK-293T) it was 3000 to 50000 nM.

As to `C[C@@](O)(C(=O)N1CCc2c(nnn2-c2ccc(F)cc2)C1)C(F)(F)F` [Compound A47, (R)-3,3,3-Trifluoro-1-[1-(4-fluoro-phenyl)-1,4,6,7-tetrahydro-[1,2,3]triazolo[4,5-c]pyridin-5-yl]-2-hydroxy-2-methyl-propan-1-one], the Kd at human PDHK2 (12-407) is less than 300 nM. Also, the IC50 was in the range of 300 to 3000 nM on PDHK2 and 3000 to 50000 nM in assay [1] (Homo sapiens, HEK-293T).

`C[C@@](O)(C(=O)N1CCn2c(-c3ccccc3)cnc2C1)C(F)(F)F` [Compound A49, (R)-3,3,3-Trifluoro-2-hydroxy-2-methyl-1-(3-phenyl-5,6-dihydro-8H-imidazo[1,2-a]pyrazin-7-yl)-propan-1-one]: the Kd at human PDHK2 (12-407) was less than 300 nM. Moreover, the IC50 fell in the range of 300 to 3000 nM on PDHK2 and 3000 to 50000 nM in assay [1] (Homo sapiens, HEK-293T).

In the case of `C[C@@](O)(C(=O)N1CCn2c(cnc2-c2ccccc2)C1)C(F)(F)F` [Compound A50, (R)-3,3,3-Trifluoro-2-hydroxy-2-methyl-1-(3-phenyl-5,6-dihydro-8H-imidazo-[1,5-a]pyrazin-7-yl)-propan-1-one], at human PDHK2 (12-407), the Kd is less than 300 nM. Further, the IC50 at PDHK2 was 300 to 3000 nM; in assay [1] (Homo sapiens, HEK-293T), 3000 to 50000 nM.

Take `C[C@@](O)(C(=O)N1CCn2c(cnc2-c2ccc(F)cc2)C1)C(F)(F)F` [Compound A51, (R)-3,3,3-Trifluoro-1-[3-(4-fluoro-phenyl)-5,6-dihydro-8H-imidazo[1,5-a]pyrazin-7-yl]-2-hydroxy-2-methyl-propan-1-one]: the Kd on human PDHK2 (12-407) was less than 300 nM. In addition, the IC50 at PDHK2 lay within 300 to 3000 nM; in assay [1] (Homo sapiens, HEK-293T), 3000 to 50000 nM.

Turning to `C[C@@H]1CN(C(=O)[C@@](C)(O)C(F)(F)F)Cc2cnc(-c3ccc(F)cc3)n21` [Compound A52, (R)-3,3,3-Trifluoro-1-[(R)-3-(4-fluoro-phenyl)-5-methyl-5,6-dihydro-8H-imidazo[1,5-a]pyrazin-7-yl]-2-hydroxy-2-methyl-propan-1-one], the Kd at human PDHK2 (12-407) was less than 300 nM. For the same molecule, the IC50 on PDHK2 was less than 300 nM; in assay [1] (Homo sapiens, HEK-293T) it was less than 300 nM.

`C[C@@H]1CN(C(=O)[C@@](C)(O)C(F)(F)F)Cc2cnc(-c3ccc(F)cc3F)n21` [Compound A54, (R)-1-[(R)-3-(2,4-Difluoro-phenyl)-5-methyl-5,6-dihydro-8H-imidazo[1,5-a]pyrazin-7-yl]-3,3,3-trifluoro-2-hydroxy-2-methyl-propan-1-one] came in with a Kd on human PDHK2 (12-407) of less than 300 nM. For the same molecule, the IC50 was less than 300 nM at PDHK2 and less than 300 nM in assay [1] (Homo sapiens, HEK-293T).

`C[C@@H]1CN(C(=O)[C@@](C)(O)C(F)(F)F)Cc2cnc(-c3ncc(F)cc3F)n21` [Compound A57, (R)-1-[(R)-3-(3,5-Difluoro-pyridin-2-yl)-5-methyl-5,6-dihydro-8H-imidazo[1,5-a]pyrazin-7-yl]-3,3,3-trifluoro-2-hydroxy-2-methyl-propan-1-one] returned a Kd on human PDHK2 (12-407) of less than 300 nM. In addition, the IC50 on PDHK2 is 300 to 3000 nM; in assay [1] (Homo sapiens, HEK-293T), less than 300 nM.
